What was measured:
HCV replicon genotype 1a = assay: microbe, parasite or virus in culture; assay type: cell-based; details: Hepatitis C virus; HCV genotype 1a replicon cells; 96 hours incubation; replicon-encoded NS3/4A protein by ELISA; percentage of DMSO control
HCV replicon genotype 1b = assay: microbe, parasite or virus in culture; assay type: cell-based; details: Hepatitis C virus; HCV genotype 1b replicon cells; 96 hours incubation; replicon-encoded NS3/4A protein by ELISA; percentage of DMSO control

| SMILES | IC50 (HCV replicon genotype 1a) [nM] | IC50 (HCV replicon genotype 1b) [nM] |
| --- | --- | --- |
| CNC(=O)c1c(-c2ccc(F)cc2)oc2cc(N(C)S(C)(=O)=O)c(-c3ccc4c(c3)ncn4-c3cccnc3)cc12 [Compound 23] | 24.1 |  |
| CNC(=O)c1c(-c2ccc(F)cc2)oc2cc(N(C)S(C)(=O)=O)c(-c3ccc4[nH]c(-c5ccccc5)cc4c3)cc12 [Compound 39] | > 1000 |  |
| CNC(=O)c1c(-c2ccc(F)cc2)oc2cc(N(C)S(C)(=O)=O)c(-c3ccc4ncn(-c5ccc(F)cc5)c4c3)cc12 [Compound 15] | 338 | 20.2 |
| CNC(=O)c1c(-c2ccc(F)cc2)oc2cc(N(C)S(C)(=O)=O)c(-c3ncc4ncn(-c5ccc(C#N)cc5)c4n3)cc12 [Compound 32] | > 1000 |  |
| CNC(=O)c1c(-c2ccc(F)cc2)oc2cc(N(C)S(C)(=O)=O)c(-c3ccc4cnn(-c5ccc(Cl)cc5)c4c3)cc12 [Compound 52] | 6 | 6.9 |
| CNC(=O)c1c(-c2ccc(F)cc2)oc2cc(N(C)S(C)(=O)=O)c(-c3ccc4ncn(CCO)c4c3)cc12 [Compound 28] | 755 | 75.7 |
| CNC(=O)c1c(-c2ccc(F)cc2)oc2cc(N(C)S(C)(=O)=O)c(-c3ncc4ncn(-c5ccc(OC(F)(F)F)cc5)c4n3)cc12 [Compound 29, 2-(4-fluorophenyl)-N-methyl-6-(N-methylmethylsulfonamido)-5-(9-(4-(trifluoromethoxy)phenyl)-9H-purin-2-yl)benzofuran-3-carboxamide] | > 1000 |  |
| CNC(=O)c1c(-c2ccc(F)cc2)oc2cc(N(C)S(C)(=O)=O)c(-c3ccc4c(c3)ncn4-c3ccccc3)cc12 [Compound 22] | 25.3 | 2.9 |
